Experimental data published in publication PMC3169616, “Unique Residues Involved in Activation of the Multitasking Protease/Chaperone HtrA from Chlamydia trachomatis” (PLoS ONE, 2011).
No end group written: not given here. *: point of attachment. pNA = O=[N+]([O-])c1ccc(N*)cc1

Tests used:
CtHtrA [1] = molecular target: T1, CtHtrA (Chlamydia trachomatis serovar D, UniProt P18584); assay: Protease assay and kinetic analysis with pNA-labelled peptide substrates; format: biochemical; details: pNA peptide as substrate, absorbance 405 nm, 37°C; for Vmax: reading every 10 s for 30 min
T1 construct: His-tag; made in house; host or cells: E. coli BL21 (DE3), plasmid pETHtrA
T1 sequence (P18584 17-497): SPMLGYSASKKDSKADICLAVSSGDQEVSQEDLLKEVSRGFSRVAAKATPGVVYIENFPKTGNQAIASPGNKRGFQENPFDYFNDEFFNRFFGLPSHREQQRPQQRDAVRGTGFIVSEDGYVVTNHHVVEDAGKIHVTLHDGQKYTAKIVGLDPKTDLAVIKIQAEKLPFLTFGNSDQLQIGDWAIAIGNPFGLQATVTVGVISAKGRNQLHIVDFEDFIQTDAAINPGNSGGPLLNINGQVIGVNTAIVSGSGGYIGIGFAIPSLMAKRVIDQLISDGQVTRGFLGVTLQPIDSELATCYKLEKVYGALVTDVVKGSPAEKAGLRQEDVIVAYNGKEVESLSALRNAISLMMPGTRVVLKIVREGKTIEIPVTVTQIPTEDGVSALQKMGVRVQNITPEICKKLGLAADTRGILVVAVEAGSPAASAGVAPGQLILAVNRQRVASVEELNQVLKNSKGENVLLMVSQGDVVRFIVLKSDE
Procedure: A series of peptide substrates were then designed based on the cleavage sites previously identified in ß-casein [3], PICS results, previously published substrates for E. coli DegP [22], and the REPLi library screening results. These peptides were assayed against CtHtrA and kinetic analysis was conducted (Table 2). […] Generally, peptides with only 4 residues or less were not cleaved. […] The preference for K at P3 implies a salt bridge may be involved in substrate coordination in the CtHtrA active site in the substrate pocket or subsite S3. In a direct comparison between MFRLI-pNA and MFQLI-pNA, R was clearly the most preferred. […] The Km for each of these, however, was at least an order of magnitude higher than the Km for MFKLI-pNa. The results from individually synthesised peptides (Table 2) and the peptides sourced from the REPLi library (Table 1) were consistent in that non-polar sequences are most preferred. […] (Fig. S3).
The purified recombinant protein was examined by Coomassie stained polyacrylamide gels and activity was checked using ß-casein cleavage assays prior to use in peptide assays. Briefly, this involved incubating 2 µg of the protease with 10 µg of ß-casein in 50 mM Tris pH 7.0, 20 mM MgCl2 for 2 h prior to examining the assays by SDS PAGE (ß-casein and protease only controls were always conducted). Protease assays using peptides were conducted using custom synthesised peptides (Mimotopes). The peptides were purified to 95% purity (or greater) and were typically resuspended in 50% isopropanol, although some peptides required 100% DMSO. Protease assays using pNA labelled peptides were conducted using the xMARK Microplate spectrophotometer (Bio-Rad) at 405 nm, incubated at 37°C, with a reading taken every 10 s for 30 min. The maximum slope over a minimum of 8 readings was used for the data analysis. Other peptides were labelled with 7-methoxycoumarin-4-acetic acid (MCA, fluorophore) and 2,4-dinitrophenyl (DNP, quencher). The protease assays using these peptides were conducted in black plates at 37°C using the POLARstar Optima (BMG Labtech). The assays were excited at 340 nm and emission was detected at 405 nm with a gain of 1000, the assays were monitored every 20 s or at the minimum cycle time for up to 40 min. The Omega software was used to calculate the maximum rate from a minimum of 6 time points for each assay. The REPLi library of peptides (Mimotopes, Melbourne, Australia) was also assayed with CtHtrA in the POLARstar Optima using similar assay conditions to those described above. Substrate only and protease only assay controls were conducted for every experiment and protease assays were typically conducted in triplicate on at least two different days. The assay results shown are the maximal rate observed from three or more different assays and adjusted for protein concentration. The assay results shown for the fluorescent compounds have been normalised for the amount of fluorescent emission detected using a standard curve of known concentrations of the MCA fluorophore under the identical assay conditions. All of the peptides used in this work were synthesised commercially to 95% purity or greater (Mimotopes, Melbourne, Australia). All protease assays were conducted minimally in duplicate on three separate occasions.

CtHtrA [2] = molecular target: T1, CtHtrA; assay: Oligomerisation assay (glutaraldehyde crosslinking, 3-8% TrisAcetate gel, silver stain); format: biochemical; details: wild type CtHtrA 2 mg/ml, 100 mM sodium phosphate pH 7.0, 10 mins at 37°C, 0.5% glutaraldehyde fixation
Procedure: E. coli DegP proteolysis activation involves the transition from resting hexamers via trimers to 12- and 24-mers following the peptide activator binding to the PDZ1 binding cleft. CtHtrA oligomer formation induced by Act1 addition was examined after incubation for 10 mins at 37°C. The wild type and mutant proteins were incubated with either the ß-casein based activator peptide (Act1), or with whole insulin (intact), or in the absence of any activator as a control. CtHtrA incubated in the absence of any added activators formed 24-mers with some hexamers detected after 10 mins (Fig. 5). […] The R299W mutant was present as hexamer and 24-mer in the control with no activator. […] The L302N mutant was not detected in any higher oligomeric form under any conditions. L302N was detected as faint hexamer and trimer but mostly monomer under all tested conditions (not visible on these gels). […] I365D was detected as hexamers, trimers, 12-mers, and some 24-mers when incubated in the absence of activators.
The oligomerisation of HtrA into 12- and 24-mer complexes has been independently detected for E. coli HtrA (DegP). The oligomerisation of HtrA (DegP) was triggered by peptides from digested ß-casein [18]. Assays to detect whether CtHtrA and site directed mutant protein oligomerisation was triggered by substrates were conducted essentially as previously described (Merdanovic et al., 2010). Briefly, 2 mg/ml protein solutions in 100 mM sodium phosphate buffer pH 7.0 were pre-incubated to the required temperature. The ligands (activator peptide, or insulin) were added and at 10 min, and the proteins were fixed using 0.5% glutaraldehyde. Samples were fixed at room temperature for 2 min prior to addition of 1 M Tris pH 7.5 to remove any excess glutaraldehyde. Samples were incubated for another 10 min at room temperature prior to addition of SDS PAGE reducing loading buffer. The protein samples were examined on 3–8% TrisAcetate gradient polyacrylamide gels (Novex, Invitrogen) by silver staining. The proteins used in this study were not initially denatured by treatment with urea as, the refolding, formation of oligomers, and protease activity was never successfully detected with denatured CtHtrA. All assays were conducted in duplicate on three separate occasions with at least two gels of each experiment completed for each assay condition.

Row | Substance | Kcat/Km (CtHtrA [1]) [M⁻¹ s⁻¹] | Km (CtHtrA [1]) [µM] | Vmax (CtHtrA [1]) | CtHtrA oligomer formation induced by activator (CtHtrA [2])
1 | DMPFKLT-pNA [Model E. coli substrate, T at P1] | 158.7 | 940 | 8.955 mM sec^−1, µM CtHtrA^−1 | 
2 | DPMFKLI-pNA [Model E. coli substrate, I at P1] |  | 527 | 10.340 mM sec^−1, µM CtHtrA^−1 | 
3 | DPMFKLL-pNA [Model E. coli substrate, L at P1] |  | 883 | 3.179 mM sec^−1, µM CtHtrA^−1 | 
4 | DPMFKLP-pNA [Model E. coli substrate, P at P1] |  | 3870 | 2.917 mM sec^−1, µM CtHtrA^−1 | 
5 | DPMFKLV-pNA [previously published E. coli DegP substrate [22], reference compound] | 241.2 | 323 | 4.678 mM sec^−1, µM CtHtrA^−1 | 
6 | DPMFKQT-pNA [Model E. coli substrate, change P1 and P2] | 542.2 | 9.38 | 0.3165 mM sec^−1, µM CtHtrA^−1 | 
7 | H-AESNFKMLEIEAE-OH [CtL0043, C-terminal 13 residues of outer membrane ß-barrel CtL0043] |  |  |  | activated mainly trimer formation with some 12-mer present
8 | H-HDVLSPSLDEINVP-OH [PyKinC] |  |  |  | activated mainly trimer formation with some 12-mer present
